#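 Grown in 96-well plates, cells were treated for 48 hours with each compound at five concentrations. Insufficient inhibition: endpoint recorded as highest concentration tested. TGI denotes the concentration required for complete inhibition of growth.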
# How the values were obtained:
# Assay in all cases: NCI-60 cell line screen, 48 h
# SNB-75 CNS = system: SNB-75 CNS
# ACHN renal = system: ACHN renal
# TK-10 renal = system: TK-10 renal
# UACC-62 melanoma = system: UACC-62 melanoma
# SK-MEL-5 melanoma = system: SK-MEL-5 melanoma
# HCT-15 colon = system: HCT-15 colon
# PC-3 prostate = system: PC-3 prostate
# HCT-116 colon = system: HCT-116 colon
# 786-0 renal = system: 786-0 renal
# U251 CNS = system: U251 CNS
# SF-539 CNS = system: SF-539 CNS
# MALME-3M melanoma = system: MALME-3M melanoma
# DU-145 prostate = system: DU-145 prostate
# LOX IMVI melanoma = system: LOX IMVI melanoma
# T-47D breast = system: T-47D breast
# MDA-MB-435 = system: MDA-MB-435
# MDA-MB-231 breast = system: MDA-MB-231 breast
# SK-MEL-2 melanoma = system: SK-MEL-2 melanoma
# HOP-92 NSCLC = system: HOP-92 NSCLC
# UO-31 renal = system: UO-31 renal
# CCRF-CEM leukemia = system: CCRF-CEM leukemia
# HOP-62 NSCLC = system: HOP-62 NSCLC
# SK-OV-3 ovarian = system: SK-OV-3 ovarian
# HT29 colon = system: HT29 colon
# MOLT-4 leukemia = system: MOLT-4 leukemia
# OVCAR-4 ovarian = system: OVCAR-4 ovarian
# OVCAR-3 ovarian = system: OVCAR-3 ovarian
# M14 melanoma = system: M14 melanoma
# SW-620 colon = system: SW-620 colon
# NCI-H226 lung = system: NCI-H226 lung
# EKVX NSCLC = system: EKVX NSCLC
# IGROV1 ovarian = system: IGROV1 ovarian
# SR leukemia = system: SR leukemia
# OVCAR-8 ovarian = system: OVCAR-8 ovarian
# MCF7 breast = system: MCF7 breast
# MDA-N = system: MDA-N
# KM12 colon = system: KM12 colon
# HL-60(TB) leukemia = system: HL-60(TB) leukemia
# NCI/ADR-RES ovarian = system: NCI/ADR-RES ovarian
# A549 NSCLC = system: A549 NSCLC
# OVCAR-5 ovarian = system: OVCAR-5 ovarian
# SF-295 CNS = system: SF-295 CNS
# RPMI-8226 leukemia = system: RPMI-8226 leukemia
# SN12C renal = system: SN12C renal
# K-562 leukemia = system: K-562 leukemia
# COLO 205 colon = system: COLO 205 colon
# NCI-H23 lung = system: NCI-H23 lung
# HCC-2998 colon = system: HCC-2998 colon
# SK-MEL-28 melanoma = system: SK-MEL-28 melanoma
# NCI-H460 lung = system: NCI-H460 lung
# SF-268 CNS = system: SF-268 CNS
# HS 578T breast = system: HS 578T breast
# SNB-19 CNS = system: SNB-19 CNS
# RXF 393 renal = system: RXF 393 renal
# NCI-H522 lung = system: NCI-H522 lung
# CAKI-1 renal = system: CAKI-1 renal
# A498 renal = system: A498 renal
# UACC-257 melanoma = system: UACC-257 melanoma
# BT-549 breast = system: BT-549 breast
smiles,measurement,setting,value
c1ccc2c(c1)c1c(n2CCOCCN2CCCCC2)CCCC1,TGI,SNB-75 CNS,26.7 µM
same,TGI,ACHN renal,27.7 µM
same,TGI,TK-10 renal,27.3 µM
same,TGI,UACC-62 melanoma,28.7 µM
same,TGI,SK-MEL-5 melanoma,21.1 µM
same,TGI,HCT-15 colon,27.7 µM
same,TGI,PC-3 prostate,22.2 µM
same,TGI,HCT-116 colon,25 µM
same,TGI,786-0 renal,26.4 µM
same,TGI,U251 CNS,32.7 µM
same,TGI,SF-539 CNS,31.7 µM
same,TGI,MALME-3M melanoma,26.7 µM
same,TGI,DU-145 prostate,32.6 µM
same,TGI,LOX IMVI melanoma,28.3 µM
same,TGI,T-47D breast,35.2 µM
same,TGI,MDA-MB-435,26.6 µM
same,TGI,MDA-MB-231 breast,24.4 µM
same,TGI,SK-MEL-2 melanoma,21.1 µM
same,TGI,HOP-92 NSCLC,22.3 µM
same,TGI,UO-31 renal,24.6 µM
same,TGI,CCRF-CEM leukemia,29.6 µM
same,TGI,HOP-62 NSCLC,29 µM
same,TGI,SK-OV-3 ovarian,34.9 µM
same,TGI,HT29 colon,24.6 µM
same,TGI,MOLT-4 leukemia,26.7 µM
same,TGI,OVCAR-4 ovarian,25.3 µM
same,TGI,OVCAR-3 ovarian,21.7 µM
same,TGI,M14 melanoma,25.7 µM
same,TGI,SW-620 colon,35.7 µM
same,TGI,NCI-H226 lung,38.5 µM
same,TGI,EKVX NSCLC,32.8 µM
same,TGI,IGROV1 ovarian,28.1 µM
same,TGI,SR leukemia,36 µM
same,TGI,OVCAR-8 ovarian,28.4 µM
same,TGI,MCF7 breast,27.6 µM
same,TGI,MDA-N,28.7 µM
same,TGI,KM12 colon,26.7 µM
same,TGI,HL-60(TB) leukemia,8.33 µM
same,TGI,NCI/ADR-RES ovarian,23.4 µM
same,TGI,A549 NSCLC,30.1 µM
same,TGI,OVCAR-5 ovarian,25.7 µM
same,TGI,SF-295 CNS,29.7 µM
same,TGI,RPMI-8226 leukemia,28 µM
same,TGI,SN12C renal,27.4 µM
same,TGI,K-562 leukemia,26.7 µM
same,TGI,COLO 205 colon,26 µM
same,TGI,NCI-H23 lung,37.4 µM
same,TGI,HCC-2998 colon,23.6 µM
same,TGI,SK-MEL-28 melanoma,58 µM
same,TGI,NCI-H460 lung,28.2 µM
same,TGI,SF-268 CNS,37.7 µM
same,TGI,HS 578T breast,32.1 µM
CC1(C)O[C@H](C(=O)O)[C@@H](C(=O)O)O1,TGI,SNB-75 CNS,> 100 µM
same,TGI,ACHN renal,> 100 µM
same,TGI,TK-10 renal,> 100 µM
same,TGI,SNB-19 CNS,> 100 µM
same,TGI,UACC-62 melanoma,> 100 µM
same,TGI,SK-MEL-5 melanoma,> 100 µM
same,TGI,HCT-15 colon,> 100 µM
same,TGI,PC-3 prostate,> 100 µM
same,TGI,HCT-116 colon,> 100 µM
same,TGI,RXF 393 renal,> 100 µM
same,TGI,786-0 renal,> 100 µM
same,TGI,U251 CNS,> 100 µM
same,TGI,SF-539 CNS,> 100 µM
same,TGI,MALME-3M melanoma,> 100 µM
same,TGI,DU-145 prostate,> 100 µM
same,TGI,LOX IMVI melanoma,> 100 µM
same,TGI,T-47D breast,> 100 µM
same,TGI,MDA-MB-435,> 100 µM
same,TGI,MDA-MB-231 breast,> 100 µM
same,TGI,NCI-H522 lung,> 100 µM
same,TGI,SK-MEL-2 melanoma,> 100 µM
same,TGI,HOP-92 NSCLC,> 100 µM
same,TGI,CCRF-CEM leukemia,> 100 µM
same,TGI,HOP-62 NSCLC,> 100 µM
same,TGI,SK-OV-3 ovarian,> 100 µM
same,TGI,HT29 colon,> 100 µM
same,TGI,CAKI-1 renal,> 100 µM
same,TGI,MOLT-4 leukemia,> 100 µM
same,TGI,OVCAR-4 ovarian,> 100 µM
same,TGI,M14 melanoma,> 100 µM
same,TGI,SW-620 colon,> 100 µM
same,TGI,NCI-H226 lung,> 100 µM
same,TGI,EKVX NSCLC,> 100 µM
same,TGI,A498 renal,> 100 µM
same,TGI,IGROV1 ovarian,> 100 µM
same,TGI,SR leukemia,> 100 µM
same,TGI,OVCAR-8 ovarian,> 100 µM
same,TGI,MCF7 breast,> 100 µM
same,TGI,MDA-N,> 100 µM
same,TGI,KM12 colon,> 100 µM
same,TGI,NCI/ADR-RES ovarian,> 100 µM
same,TGI,A549 NSCLC,> 100 µM
same,TGI,OVCAR-5 ovarian,> 100 µM
same,TGI,SF-295 CNS,> 100 µM
same,TGI,RPMI-8226 leukemia,> 100 µM
same,TGI,SN12C renal,> 100 µM
same,TGI,K-562 leukemia,> 100 µM
same,TGI,COLO 205 colon,> 100 µM
same,TGI,UACC-257 melanoma,> 100 µM
same,TGI,HCC-2998 colon,> 100 µM
same,TGI,SK-MEL-28 melanoma,> 100 µM
same,TGI,NCI-H460 lung,> 100 µM
same,TGI,SF-268 CNS,> 100 µM
same,TGI,HS 578T breast,> 100 µM
Nc1ccc2c(c1)C1Oc3ccccc3CC1CO2 (centres undefined),TGI,TK-10 renal,> 100 µM
same,TGI,UACC-62 melanoma,> 100 µM
same,TGI,SK-MEL-5 melanoma,> 100 µM
same,TGI,HCT-15 colon,35.6 µM
same,TGI,PC-3 prostate,> 100 µM
same,TGI,HCT-116 colon,> 100 µM
same,TGI,786-0 renal,> 100 µM
same,TGI,U251 CNS,> 100 µM
same,TGI,SF-539 CNS,> 100 µM
same,TGI,MALME-3M melanoma,> 100 µM
same,TGI,DU-145 prostate,> 100 µM
same,TGI,LOX IMVI melanoma,> 100 µM
same,TGI,T-47D breast,> 100 µM
same,TGI,MDA-MB-435,> 100 µM
same,TGI,MDA-MB-231 breast,> 100 µM
same,TGI,NCI-H522 lung,> 100 µM
same,TGI,SK-MEL-2 melanoma,> 100 µM
same,TGI,HOP-92 NSCLC,> 100 µM
same,TGI,UO-31 renal,> 100 µM
same,TGI,CCRF-CEM leukemia,> 100 µM
same,TGI,HOP-62 NSCLC,> 100 µM
same,TGI,SK-OV-3 ovarian,> 100 µM
same,TGI,HT29 colon,> 100 µM
same,TGI,CAKI-1 renal,> 100 µM
same,TGI,MOLT-4 leukemia,> 100 µM
same,TGI,OVCAR-3 ovarian,> 100 µM
same,TGI,M14 melanoma,> 100 µM
same,TGI,SW-620 colon,> 100 µM
same,TGI,NCI-H226 lung,> 100 µM
same,TGI,EKVX NSCLC,> 100 µM
same,TGI,A498 renal,> 100 µM
same,TGI,IGROV1 ovarian,> 100 µM
same,TGI,SR leukemia,> 100 µM
same,TGI,OVCAR-8 ovarian,> 100 µM
same,TGI,MCF7 breast,> 100 µM
same,TGI,MDA-N,> 100 µM
same,TGI,KM12 colon,> 100 µM
same,TGI,BT-549 breast,> 100 µM
same,TGI,HL-60(TB) leukemia,> 100 µM
same,TGI,NCI/ADR-RES ovarian,> 100 µM
same,TGI,A549 NSCLC,> 100 µM
same,TGI,OVCAR-5 ovarian,> 100 µM
same,TGI,SF-295 CNS,> 100 µM
same,TGI,RPMI-8226 leukemia,> 100 µM
same,TGI,SN12C renal,> 100 µM
same,TGI,K-562 leukemia,> 100 µM
same,TGI,COLO 205 colon,> 100 µM
same,TGI,UACC-257 melanoma,> 100 µM
same,TGI,NCI-H23 lung,> 100 µM
same,TGI,HCC-2998 colon,> 100 µM
same,TGI,SF-268 CNS,> 100 µM
CCOC(=O)c1ccc(-c2cc(C)[nH]n2)[nH]1,TGI,SNB-75 CNS,> 100 µM
same,TGI,ACHN renal,> 100 µM
same,TGI,TK-10 renal,> 100 µM
same,TGI,SNB-19 CNS,> 100 µM
same,TGI,UACC-62 melanoma,> 100 µM
same,TGI,SK-MEL-5 melanoma,> 100 µM
same,TGI,HCT-15 colon,> 100 µM
same,TGI,PC-3 prostate,> 100 µM
same,TGI,HCT-116 colon,> 100 µM
same,TGI,RXF 393 renal,> 100 µM
same,TGI,786-0 renal,> 100 µM
same,TGI,U251 CNS,> 100 µM
same,TGI,SF-539 CNS,> 100 µM
same,TGI,MALME-3M melanoma,> 100 µM
same,TGI,DU-145 prostate,> 100 µM
same,TGI,LOX IMVI melanoma,> 100 µM
same,TGI,T-47D breast,> 100 µM
same,TGI,MDA-MB-435,> 100 µM
same,TGI,MDA-MB-231 breast,> 100 µM
same,TGI,NCI-H522 lung,> 100 µM
same,TGI,SK-MEL-2 melanoma,> 100 µM
same,TGI,HOP-92 NSCLC,> 100 µM
same,TGI,UO-31 renal,> 100 µM
same,TGI,CCRF-CEM leukemia,> 100 µM
same,TGI,HOP-62 NSCLC,> 100 µM
same,TGI,SK-OV-3 ovarian,> 100 µM
same,TGI,HT29 colon,> 100 µM
same,TGI,CAKI-1 renal,> 100 µM
same,TGI,OVCAR-4 ovarian,> 100 µM
same,TGI,OVCAR-3 ovarian,> 100 µM
same,TGI,M14 melanoma,> 100 µM
same,TGI,SW-620 colon,> 100 µM
same,TGI,NCI-H226 lung,> 100 µM
same,TGI,EKVX NSCLC,> 100 µM
same,TGI,A498 renal,> 100 µM
same,TGI,OVCAR-8 ovarian,> 100 µM
same,TGI,MDA-N,> 100 µM
same,TGI,KM12 colon,> 100 µM
same,TGI,BT-549 breast,> 100 µM
same,TGI,HL-60(TB) leukemia,> 100 µM
same,TGI,NCI/ADR-RES ovarian,> 100 µM
same,TGI,A549 NSCLC,> 100 µM
same,TGI,OVCAR-5 ovarian,> 100 µM
same,TGI,SF-295 CNS,> 100 µM
same,TGI,RPMI-8226 leukemia,> 100 µM
same,TGI,SN12C renal,> 100 µM
same,TGI,COLO 205 colon,> 100 µM
same,TGI,UACC-257 melanoma,> 100 µM
same,TGI,NCI-H23 lung,> 100 µM
same,TGI,SK-MEL-28 melanoma,> 100 µM
same,TGI,NCI-H460 lung,> 100 µM
same,TGI,SF-268 CNS,> 100 µM

# Source: PubChem BioAssay (NCI)
